Patent US3962269A, “1,3-Propandiol intermediates” (Eli Lilly and Company, priority 1975, dated 1976)
Structures can show the parent of a compound that is named as a salt.

Assays:
[1] = rat tail jerk assay, analgesic activity; format: in vivo, rat (Sprague-Dawley females); conditions: for ED50: dose giving significant peak analgesic effect in 50 percent of test animals; for PT (peak analgesic time), Rat Tail Jerk, Oral / PT (peak analgesic time), Rat Tail Jerk, Subcutaneous: time after dosing of maximum analgesic response
Excerpt: The other analgesic method was the rat tail jerk assay described by Robbins, J. Amer. Pharm. Assoc. Sci. Ed., 44, 497 (1955). The rats were Sprague-Dawley females weighing 70-90 g. Briefly, the tail was held on a temperature controlled tail rest near a nichrome resistance wire through which a current could flow. A switch used to start the flow of current to heat the wire simultaneously started a timer. When a jerk of the tail was detected by the operator, the switch was released and the latency of the response was recorded as the "reaction time." The tail was placed near the hot wire stimulus for a maximum duration of 30 seconds. Twenty rats were tested as a group in a randomized order. At least five rats were used for each treatment and each rat was dosed and tested only once.
(§1) Table 1 below gives the results of testing representative compounds of this invention as analgesics by the above methods. The first four columns in Table 1 describe the particular compound tested. The next eight columns give the mouse writhing results and the rat tail jerk results both by oral and subcutaneous administration. The columns headed PT ("Peak Analgesic Time") give the time in minutes after dosing at which the maximum analgesic responses are measured. The columns headed "ED50 (mg./kg.)" give the doses (ED50) in milligrams per kilogram (mg./kg.) of body weight that produce a significant peak analgesic effect in 50 percent of test animals.

[2] = mouse writhing assay (acetic acid), analgesic activity; format: in vivo, mouse (Cox standard males); conditions: for ED50 / PT (peak analgesic time), Mouse Writhing, Oral / PT (peak analgesic time), Mouse Writhing, Subcutaneous: mouse; for ED50: dose giving significant peak analgesic effect in 50 percent of test animals; for PT (peak analgesic time), Mouse Writhing, Oral / PT (peak analgesic time), Mouse Writhing, Subcutaneous: time after dosing of maximum analgesic response
Procedure: Analgesic activity for representative compounds of the instant invention was determined with two standard animal techniques. The mouse writhing assay used was a modification of the method wherein frequency of writhing [Hendershot and Sorsaith, J. Pharm. Exp. Ther. 125, 237 (1959)] is observed after intra peritoneal administration of 0.6 percent acetic acid [Koster et al., Fed. Proc. Soc. Expt. Biol. 18, 412 (1959)]. The mice were Cox standard males weighting 20-22 gm. The number of writhes was determined for each of five mice during the period 5-15 minutes after acetic acid treatment. The percent inhibition due to drug treatment was determined by comparison with control mice.
as §1

[3] = cited from earlier work
[4] = analgesic activity, general statements; format: in vivo; conditions: in words
[5] = oral, read-out: ED50, Rat Tail Jerk, Oral
[6] = sc, subcutaneous, read-out: ED50, Rat Tail Jerk, Subcutaneous
[7] = oral, read-out: ED50, Mouse Writhing, Oral
[8] = sc, subcutaneous, read-out: ED50, Mouse Writhing, Subcutaneous

Which ED50 [1, 5] does the source give for Cc1ccc(C(C2COCOC2)N(C)C)cc1.O=C(O)/C=C\C(=O)O (stereo not drawn) [dl 4-CH3 --C6 H4, H, Maleate, N,N-dimethyl-α-(4-methylphenyl)-m-dioxane-5-methylamine maleate] here?
The ED50 was 60 mg/kg.

What about the “PT (peak analgesic time), Rat Tail Jerk, Oral” value (“PT … Rat Tail Jerk, Oral” for short) ([1]; oral) of the same compound?
The value was 45 min.

What about the ED50 [1, 6] of the same compound?
The ED50 was 8 mg/kg.

What about the “PT (peak analgesic time), Rat Tail Jerk, Subcutaneous” value (shortened to “PT … Rat Tail Jerk, Subcutaneous”) ([1]; subcutaneous) of the same compound?
Its value is 30 min.

What about the ED50 [2, 7] of the same compound?
The ED50 was 110 mg/kg.

What about the “PT (peak analgesic time), Mouse Writhing, Oral” value (“PT … Mouse Writhing, Oral” below) ([2]; oral) of the same compound?
Its value is 45 min.

What about the “PT (peak analgesic time), Mouse Writhing, Subcutaneous” value (shortened to “PT … Mouse Writhing, Subcutaneous”) ([2]; subcutaneous) of the same compound?
The value was 30 min.

And the ED50 [2, 8]?
The ED50 was 20 mg/kg.

With CN(C)C(c1ccccc1)C1COCOC1.Cl (stereo not drawn) [dl C6 H5, H, HCl, N,N-dimethyl-α-phenyl-m-dioxane-5-methylamine hydrochloride] as the compound, how does the ED50 [1, 5] read?
Its ED50 is 27 mg/kg.

And the “PT … Rat Tail Jerk, Oral” value ([1]; oral)?
Its value is 15 min.

What about the ED50 [1, 6] of the same compound?
Its ED50 is 4.5 mg/kg.

And the “PT … Rat Tail Jerk, Subcutaneous” value ([1]; subcutaneous)?
The value was 15 min.

What about the ED50 [2, 7] of the same compound?
Its ED50 is 28 mg/kg.

What about the “PT … Mouse Writhing, Oral” value ([2]; oral) of the same compound?
Its value is 45 min.

What about the “PT … Mouse Writhing, Subcutaneous” value ([2]; subcutaneous) of the same compound?
The value was 15 min.

What about the ED50 [2, 8] of the same compound?
Its ED50 is 15 mg/kg.

Which results are given for CCC1OCC(C(c2ccccc2)N(C)C)CO1 (stereo not drawn) [dl C6 H5, C2 H5, N,N-dimethyl-2-ethyl-α-phenyl-m-dioxane-5-methylamine]?
ED50 [1, 5]: 21 mg/kg; PT (peak analgesic time), Rat Tail Jerk, Oral ([1]; oral): 15 min; ED50 [1, 6]: 3.4 mg/kg; PT (peak analgesic time), Rat Tail Jerk, Subcutaneous ([1]; subcutaneous): 15 min; duration of analgesic action in mice ([2]; mice): long acting in mice; ED50 [2, 7]: 23 mg/kg; PT (peak analgesic time), Mouse Writhing, Oral ([2]; oral): 75 min; PT (peak analgesic time), Mouse Writhing, Subcutaneous ([2]; subcutaneous): 75 min; ED50 [2, 8]: 19 mg/kg

For CC1OCC(C(c2ccccc2)N(C)C)CO1 (stereo not drawn) [dl C6 H5, CH3, N,N,2-Trimethyl-α-phenyl-m-dioxane-5-methylamine], which ED50 [1, 5] is on record?
Its ED50 is 12 mg/kg.

What about the “PT … Rat Tail Jerk, Oral” value ([1]; oral) of the same compound?
Its value is 15 min.

What about the ED50 [1, 6] of the same compound?
The ED50 was 2.8 mg/kg.

And the “PT … Rat Tail Jerk, Subcutaneous” value ([1]; subcutaneous)?
The value was 20 min.

What about the ED50 [2, 7] of the same compound?
The ED50 was 19 mg/kg.

What about the “PT … Mouse Writhing, Oral” value ([2]; oral) of the same compound?
The value was 15 min.

What about the “PT … Mouse Writhing, Subcutaneous” value ([2]; subcutaneous) of the same compound?
Its value is 15 min.

And the ED50 [2, 8]?
Its ED50 is 3.6 mg/kg.

What does the source list for c1ccc(C2(c3ccccc3)OC[C@H]([C@@H]3CCCCN3)O2)cc1 [Dexoxadrol, d-2,2-diphenyl-4-(2-piperdyl)-1,3-dioxolane hydrochloride]?
analgesic activity (literature) [3]: mild analgesic; side effects (literature) [3]: high incidence of psychotomimetic side effects

With CN(C)C(c1cccnc1)C1COCOC1.Cl.Cl (stereo not drawn) [dl 3-pyridyl, H, 2HCl, N,N-dimethyl-α-(3-pyridyl)-m-dioxane-5-methylamine dihydrochloride] as the compound, how does the ED50 [1, 5] read?
Its ED50 is 7 mg/kg.

And the “PT … Rat Tail Jerk, Oral” value ([1]; oral)?
The value was 15 min.

What about the ED50 [1, 6] of the same compound?
Its ED50 is 7 mg/kg.

What about the “PT … Rat Tail Jerk, Subcutaneous” value ([1]; subcutaneous) of the same compound?
Its value is 15 min.

And the ED50 [2, 7]?
The ED50 was 25 mg/kg.

And the “PT … Mouse Writhing, Oral” value ([2]; oral)?
The value was 30 min.

And the “PT … Mouse Writhing, Subcutaneous” value ([2]; subcutaneous)?
The value was 30 min.

And the ED50 [2, 8]?
Its ED50 is 10 mg/kg.

Which ED50 [1, 5] does the source give for CN(C)C(c1ccccc1)C1COCOC1 (single isomer, unassigned) [l C6 H5, H, HCl, l-N,N-dimethyl-α-phenyl-m-dioxane-5-methylamine hydrochloride] here?
Its ED50 is 10 to 20 mg/kg.

And the “PT … Rat Tail Jerk, Oral” value ([1]; oral)?
Its value is 15 min.

And the ED50 [1, 6]?
The ED50 was 7 mg/kg.

What about the “PT … Rat Tail Jerk, Subcutaneous” value ([1]; subcutaneous) of the same compound?
The value was 15 min.

What about the ED50 [2, 7] of the same compound?
The ED50 was 16 mg/kg.

And the “PT … Mouse Writhing, Oral” value ([2]; oral)?
Its value is 15 min.

What about the “PT … Mouse Writhing, Subcutaneous” value ([2]; subcutaneous) of the same compound?
Its value is 15 min.

What about the ED50 [2, 8] of the same compound?
The ED50 was 6 mg/kg.

Which analgesic activity [4] does the source give for CN(C)C(c1ccccc1)C1COCOC1 (single isomer, unassigned) [1-N,N-dimethyl-α-phenyl-m-dioxane-5-methylamine] here?
Its analgesic activity is “analgesically active”.

For CC1OCC(CN(C)C)O1 (stereo not drawn) [N,N,2-Trimethyl-1,3-dioxolane-4-methylamine], which “analgesic activity (literature)” value [3] is on record?
Its value is “mild analgesic”.

And the “side effects (literature)” value [3]?
Its value is “cholinergic side effects”.
